Laboratory results: ChEMBL document CHEMBL3046861, “QSAR STUDIES ON ADENOSINE KINASE INHIBITORS” (Med Chem Res, 2004)

biological target: Adenosine kinase (Homo sapiens) (UniProt P55263)
Sequence (P55263 2-362 limits assumed): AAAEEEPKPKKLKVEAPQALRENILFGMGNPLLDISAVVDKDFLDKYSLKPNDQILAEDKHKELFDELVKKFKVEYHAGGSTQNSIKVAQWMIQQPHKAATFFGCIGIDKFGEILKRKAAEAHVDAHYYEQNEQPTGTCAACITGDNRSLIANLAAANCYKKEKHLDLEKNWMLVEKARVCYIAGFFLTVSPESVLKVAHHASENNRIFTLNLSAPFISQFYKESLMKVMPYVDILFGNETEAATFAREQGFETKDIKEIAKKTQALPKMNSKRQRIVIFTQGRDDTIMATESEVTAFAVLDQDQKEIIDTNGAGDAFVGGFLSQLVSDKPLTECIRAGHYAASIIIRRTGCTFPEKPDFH
Description: Inhibition of adenosine kinase (unknown origin)

Compound | logIC50
C=C[C@H]1O[C@@H](n2cc(I)c3c(N)ncnc32)[C@H](O)[C@@H]1O | -1
CSc1ncnc2c1c(I)cn2[C@@H]1O[C@H](C)[C@@H](O)[C@H]1O | -1.35
Nc1ncnc2c1c(Br)cn2[C@@H]1O[C@H](CO)[C@@H](O)[C@H]1O | -0.921
C[C@H]1O[C@@H](n2cc(I)c3c(S)ncnc32)[C@H](O)[C@@H]1O | 0.813
[N-]=[N+]=NC[C@H]1O[C@@H](n2cc(I)c3c(N)ncnc32)[C@H](O)[C@@H]1O | -1.46
C[C@H]1O[C@@H](n2cc(C#N)c3c(N)ncnc32)[C@H](O)[C@@H]1O | -0.509
Nc1ncnc2c1c(Cl)cn2[C@@H]1O[C@H](CO)[C@@H](O)[C@H]1O | -0.678
Cc1cn([C@@H]2O[C@H](C)[C@@H](O)[C@H]2O)c2ncnc(Cl)c12 | -0.272
C[C@H]1O[C@@H](n2cc(Br)c3c(Cl)ncnc32)[C@H](O)[C@@H]1O | -1.3
CC[C@H]1O[C@@H](n2cc(I)c3c(N)ncnc32)[C@H](O)[C@@H]1O | -1.22
NC[C@H]1O[C@@H](n2cc(I)c3c(N)ncnc32)[C@H](O)[C@@H]1O | -3.22
CSc1cn([C@@H]2O[C@H](C)[C@@H](O)[C@H]2O)c2ncnc(Cl)c12 | -1.16

Other lines, results leading:

logIC50 | Compound
-1.62 | OC[C@H]1O[C@@H](n2cc(I)c3c(Cl)ncnc32)[C@H](O)[C@@H]1O
-0.301 | Nc1ncnc2c1c(Br)cn2[C@@H]1OC[C@@H](O)[C@H]1O
-2.52 | C[C@H]1O[C@@H](n2cc(I)c3c(Cl)ncnc32)[C@H](O)[C@@H]1O
-4 | NC[C@H]1O[C@@H](n2cc(I)c3c(Cl)ncnc32)[C@H](O)[C@@H]1O
0.13 | CSc1cn([C@@H]2O[C@H](C)[C@@H](O)[C@H]2O)c2ncnc(N)c12
-1 | [N-]=[N+]=NC[C@H]1O[C@@H](n2cc(Br)c3c(Cl)ncnc32)[C@H](O)[C@@H]1O
0.0792 | COC[C@H]1O[C@@H](n2cc(I)c3c(N)ncnc32)[C@H](O)[C@@H]1O
-2.05 | [N-]=[N+]=NC[C@H]1O[C@@H](n2cc(I)c3c(Cl)ncnc32)[C@H](O)[C@@H]1O
0.0792 | CNc1ncnc2c1c(I)cn2[C@@H]1O[C@H](C)[C@@H](O)[C@H]1O
-3.7 | NC[C@H]1O[C@@H](n2cc(Br)c3c(N)ncnc32)[C@H](O)[C@@H]1O
-1.2 | [N-]=[N+]=NC[C@H]1O[C@@H](n2cc(Br)c3c(N)ncnc32)[C@H](O)[C@@H]1O
